# Measurements: paper PMC12892976, “Alkylation-based optimization of antifungal FPPS inhibitors yields a potent, broad-spectrum lipophilic zoledronate derivative” (mBio, 2025)
# Legend:
# Format in all cases: cell-based
# [1] = tested on: Saccharomyces cerevisiae; test: MIC/MFC broth microdilution (CLSI); conditions: Saccharomyces cerevisiae S288c
# Protocol: (§1) Antifungal susceptibility was determined by broth microdilution according to the CLSI guidelines described in M27-Ed4 ([16]). […] MFC was determined by back-plating drug-treated cultures from MIC broths onto SDA plates. The MFC was defined as the lowest concentration from which no colonies could be cultured.
# [2] = tested on: Candida albicans; test: MIC/MFC broth microdilution (CLSI); conditions: Candida albicans SC5314
# Protocol: as §1
# [3] = tested on: Cryptococcus deuterogattii; test: checkerboard drug interaction (FICI, MICc);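 on all read-outs here: simplified diagonal checkerboard screen pairing antifungal drugs with FPPS inhibitors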; conditions: C. deuterogattii; for INH FD (MIC-MICc fold decrease): fold decrease of inhibitor MIC
# Protocol: (§2) Drug interactions between antifungals and FPPS inhibitors were investigated using a simplified checkerboard diagonal screening method ([45]). […] FICIs were determined according to the Loewe additivity model ([17]).
# [4] = tested on: Cryptococcus neoformans; test: checkerboard drug interaction (FICI, MICc);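 on all read-outs here: antifungal plus FPPS inhibitor pairs tested against Cryptococcus neoformans by simplified diagonal checkerboard screening, FICI computed under the Loewe additivity model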; conditions: C. neoformans; for INH FD (MIC-MICc fold decrease): fold decrease of inhibitor MIC
# Protocol: as §2
# [5] = tested on: Saccharomyces cerevisiae; test: checkerboard drug interaction (FICI, MICc); design: INH MICc / INH MICc (ITR:INH) / INH MICc (KET:INH) / INH MICc (FLC:INH): unit not given beside the values;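 further: simplified diagonal checkerboard screen pairing antifungals with FPPS inhibitors, FICI calculated under the Loewe additivity model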
# [6] = tested on: Candida glabrata; test: checkerboard drug interaction (FICI, MICc);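 on all read-outs here: simplified diagonal checkerboard screen pairing antifungals with FPPS inhibitors, FICI calculated under the Loewe additivity model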; conditions: C. glabrata; for INH FD (MIC-MICc fold decrease): fold decrease of inhibitor MIC
# Protocol: as §2
# [7] = tested on: Candida albicans; test: checkerboard drug interaction (FICI, MICc);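 further: antifungal plus FPPS inhibitor combinations on Candida albicans tested by a simplified diagonal checkerboard screen, with FICI calculated under the Loewe additivity model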; conditions: C. albicans
# Protocol: as §2
# [8] = FLC:INH combination, MIC of the inhibitor in combination with FLC
# [9] = FLC:INH combination, fold decrease of FLC MIC
# [10] = ITR:INH combination, MIC of the inhibitor in combination with ITR
# [11] = ITR:INH combination, fold decrease of ITR MIC
# [12] = KET:INH combination, MIC of the inhibitor in combination with KET
# [13] = KET:INH combination, fold decrease of KET MIC
compound,measurement,setting,value
CCCCCCCCCN1CCC[C@H]1C(=O)N[C@H](CC(=O)OC)C(=O)OC [dmPDA9],MFC,[1],128 µg/mL
same,MIC,[1],64 µg/mL
same,MFC,[2],> 128 µg/mL
same,MIC,[2],128 µg/mL
same,FICI,[3]; FLC:INH combination,3
same,INH MICc,[3]; [8],128
same,FLC FD (MIC-MICc fold decrease),[3]; [9],-2
same,INH FD (MIC-MICc fold decrease),[3]; FLC:INH combination,1
same,FICI,[3]; ITR:INH combination,1.25
same,INH MICc,[3]; [10],32
same,ITR FD (MIC-MICc fold decrease),[3]; [11],1
same,INH FD (MIC-MICc fold decrease),[3]; ITR:INH combination,4
same,FICI,[3]; KET:INH combination,1.5
same,INH MICc,[3]; [12],128
same,KET FD (MIC-MICc fold decrease),[3]; [13],2
same,INH FD (MIC-MICc fold decrease),[3]; KET:INH combination,1
same,FICI,[4]; FLC:INH combination,1.25
same,INH MICc,[4]; [8],32
same,FLC FD (MIC-MICc fold decrease),[4]; [9],1
same,INH FD (MIC-MICc fold decrease),[4]; FLC:INH combination,4
same,FICI,[4]; ITR:INH combination,≥4
same,INH MICc,[4]; [10],128
same,ITR FD (MIC-MICc fold decrease),[4]; [11],-4
same,INH FD (MIC-MICc fold decrease),[4]; ITR:INH combination,1
same,FICI,[4]; KET:INH combination,≥4
same,INH MICc,[4]; [12],128
same,KET FD (MIC-MICc fold decrease),[4]; [13],-4
same,INH FD (MIC-MICc fold decrease),[4]; KET:INH combination,1
same,FICI (FLC:INH),"[5]; Fractional Inhibitory Concentration Index, fluconazole + inhibitor",1.5
same,FICI (ITR:INH),"[5]; Fractional Inhibitory Concentration Index, itraconazole + inhibitor",3
same,FICI (KET:INH),"[5]; Fractional Inhibitory Concentration Index, ketoconazole + inhibitor",2.5
same,INH MICc (FLC:INH),[5]; MIC of the inhibitor in combination with fluconazole,64
same,INH MICc (ITR:INH),[5]; MIC of the inhibitor in combination with itraconazole,64
same,INH MICc (KET:INH),[5]; MIC of the inhibitor in combination with ketoconazole,128
same,FLC FD (FLC:INH),"[5]; MIC-MICc fold decrease of fluconazole, negative = increase",2
same,ITR FD (ITR:INH),"[5]; MIC-MICc fold decrease of itraconazole, negative = increase",-2
same,KET FD (KET:INH),"[5]; MIC-MICc fold decrease of ketoconazole, negative = increase",2
same,INH FD (FLC:INH),"[5]; MIC-MICc fold decrease of the inhibitor, with fluconazole",1
same,INH FD (ITR:INH),"[5]; MIC-MICc fold decrease of the inhibitor, with itraconazole",1
same,INH FD (KET:INH),"[5]; MIC-MICc fold decrease of the inhibitor, with ketoconazole",-2
same,FICI,[6]; FLC:INH combination,2.5
same,INH MICc,[6]; [8],32
same,FLC FD (MIC-MICc fold decrease),[6]; [9],-2
same,INH FD (MIC-MICc fold decrease),[6]; FLC:INH combination,4
same,FICI,[6]; ITR:INH combination,1.13
same,INH MICc,[6]; [10],8
same,ITR FD (MIC-MICc fold decrease),[6]; [11],1
same,INH FD (MIC-MICc fold decrease),[6]; ITR:INH combination,16
same,FICI,[6]; KET:INH combination,1.13
same,INH MICc,[6]; [12],8
same,KET FD (MIC-MICc fold decrease),[6]; [13],1
same,INH FD (MIC-MICc fold decrease),[6]; KET:INH combination,16
same,FICI,[7]; FLC:INH combination,≥4
same,INH MICc,[7]; [8],64
same,FLC FD (MIC-MICc fold decrease),[7]; [9],< -4
same,INH FD (MIC-MICc fold decrease),"[7]; FLC:INH combination, fold decrease of inhibitor MIC",2
same,FICI,[7]; ITR:INH combination,≥4
same,INH MICc,[7]; [10],64
same,ITR FD (MIC-MICc fold decrease),[7]; [11],< -4
